Data as given in the supplement of paper PMC9663587.

Legend:
Rucaparib = compound: CNCc1ccc(-c2[nH]c3cc(F)cc4c3c2CCNC4=O)cc1 [Rucaparib]
Alpelisib/BYL719 = compound: Cc1nc(NC(=O)N2CCC[C@H]2C(N)=O)sc1-c1ccnc(C(C)(C)C(F)(F)F)c1 [Alpelisib/BYL719]
Cediranib/AZD2171 = compound: COc1cc2c(Oc3ccc4[nH]c(C)cc4c3F)ncnc2cc1OCCCN1CCCC1 [Cediranib/AZD2171]
THZ1 [1] = compound: T1, CN(C)C/C=C/C(=O)Nc1ccc(C(=O)Nc2cccc(Nc3ncc(Cl)c(-c4c[nH]c5ccccc45)n3)c2)cc1 [THZ1]
[2] = compound: CC(=O)Nc1cccc(-n2c(=O)n(C3CC3)c(=O)c3c(Nc4ccc(I)cc4F)n(C)c(=O)c(C)c32)c1
BVD523 = compound: CC(C)Nc1cc(-c2c[nH]c(C(=O)N[C@H](CO)c3cccc(Cl)c3)c2)c(Cl)cn1 [BVD523]
[3] = compound: CO[C@@H](C)Cn1c(=O)n(C)c2cnc3ccc(-c4cncc(C(C)(C)O)c4)cc3c21
Saracatinib/AZD0530 = compound: CN1CCN(CCOc2cc(OC3CCOCC3)c3c(Nc4c(Cl)ccc5c4OCO5)ncnc3c2)CC1 [Saracatinib/AZD0530]
THZ531 [4] = compound: T2, CN(C)C/C=C/C(=O)Nc1ccc(C(=O)N2CCC[C@@H](Nc3ncc(Cl)c(-c4c[nH]c5ccccc45)n3)C2)cc1 [THZ531]
[5] = compound: CCCCOc1c(C(=O)c2c(F)cc(C)cc2F)c[nH]c2nncc1-2
AZD1775 = compound: C=CCn1c(=O)c2cnc(Nc3ccc(N4CCN(C)CC4)cc3)nc2n1-c1cccc(C(C)(C)O)n1 [AZD1775]
[6] = compound: COc1ccc2c(c1)[C@]1(C[C@H]1c1ccc3c(/C=C/c4ccc(CN5C[C@@H](C)O[C@@H](C)C5)cc4)n[nH]c3c1)C(=O)N2
[7] = compound: CCc1cnn2c(NCc3ccc[n+]([O-])c3)cc(N3CCCC[C@H]3CCO)nc12; test: increase in dead-cell fraction, 72 h; higher = more death;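 further: breast cancer cell lines in 384-well plates, stained with Hoechst plus LIVE/DEAD far red dye and imaged, cells above an LDR intensity threshold counted dead, Hoechst-negative corpses included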
[8] = compound: CC(=O)c1c(C)c2cnc(Nc3ccc(N4CCNCC4)cn3)nc2n(C2CCCC2)c1=O; test: as above
BSJ-03-123 = compound: CC(=O)c1c(C)c2cnc(Nc3ccc(N4CCN(CCOCCOCCOCCNC(=O)COc5cccc6c5C(=O)N(C5CCC(=O)NC5=O)C6=O)CC4)cn3)nc2n(C2CCCC2)c1=O [BSJ-03-123]; test: as above
THZ1 [9] = compound: T1, THZ1; test: as above
LEE011/Ribociclib = compound: CN(C)C(=O)c1cc2cnc(Nc3ccc(N4CCNCC4)cn3)nc2n1C1CCCC1 [LEE011/Ribociclib]; test: as above
THZ531 [10] = compound: T2, THZ531; test: as above
YKL-5-124 = compound: C=CC(=O)Nc1ccc(C(=O)Nc2[nH]nc3c2CN(C(=O)N[C@H](CN(C)C)c2ccccc2)C3(C)C)cc1 [YKL-5-124]; test: as above
Neratinib/HKI272 = compound: CCOc1cc2ncc(C#N)c(Nc3ccc(OCc4ccccn4)c(Cl)c3)c2cc1NC(=O)/C=C/CN(C)C [Neratinib/HKI272]; test: as above
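Wherever GR50, 72 h is given: breast cancer and non-malignant breast epithelial cell lines, Deep Dye Drop or Dye Drop imaging, nine half-log doses, GR normalized to time-zero plates and DMSO-only controls.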

HCC38 was tested, and the “GR50, 72 h” value (Rucaparib) was > 10 µM, the “GR50, 72 h” value (Alpelisib/BYL719) was > 10 µM and the “GR50, 72 h” value (Cediranib/AZD2171) was 1.59 µM. The “GR50, 72 h” value (THZ1 [1]) was 0.0239 µM, the “GR50, 72 h” value [2] was 0.22 µM and the “GR50, 72 h” value (BVD523) was 4.75 µM. The “GR50, 72 h” value [3] was 0.00435 µM, the “GR50, 72 h” value (Saracatinib/AZD0530) was > 10 µM and the “GR50, 72 h” value (THZ531 [4]) was 0.177 µM. For the same cell line, the “GR50, 72 h” value [5] was 0.00391 µM, the “GR50, 72 h” value (AZD1775) was 0.00378 µM and the “GR50, 72 h” value [6] was 0.00325 µM. For the same cell line, the “increase in dead-cell fraction” value ([7]; 0.0001 µM) was -0.0032, the “increase in dead-cell fraction” value ([7]; 0.0003162 µM) was -0.0125 and the “increase in dead-cell fraction” value ([7]; 0.001 µM) was -0.0108. The “increase in dead-cell fraction” value ([7]; 0.003162 µM) was -0.0127, the “increase in dead-cell fraction” value ([7]; 0.01 µM) was 0.0353 and the “increase in dead-cell fraction” value ([7]; 0.03162 µM) was 0.436. For the same cell line, the “increase in dead-cell fraction” value ([7]; 0.1 µM) was 0.514, the “increase in dead-cell fraction” value ([7]; 0.3162 µM) was 0.511 and the “increase in dead-cell fraction” value ([7]; 1 µM) was 0.536. The “increase in dead-cell fraction” value ([8]; 0.0003162 µM) was 0.0028, the “increase in dead-cell fraction” value ([8]; 0.001 µM) was -0.0069 and the “increase in dead-cell fraction” value ([8]; 0.003162 µM) was 0.0044. For the same cell line, the “increase in dead-cell fraction” value ([8]; 0.01 µM) was 0.0202, the “increase in dead-cell fraction” value ([8]; 0.03162 µM) was 0.0549 and the “increase in dead-cell fraction” value ([8]; 0.1 µM) was 0.0669. The “increase in dead-cell fraction” value ([8]; 0.3162 µM) was 0.0676, the “increase in dead-cell fraction” value ([8]; 1 µM) was 0.0915 and the “increase in dead-cell fraction” value ([8]; 3.162 µM) was 0.0488. The “increase in dead-cell fraction” value (BSJ-03-123; 0.001 µM) was 0.0173, the “increase in dead-cell fraction” value (BSJ-03-123; 0.003162 µM) was 0.0254 and the “increase in dead-cell fraction” value (BSJ-03-123; 0.01 µM) was 0.0387. The “increase in dead-cell fraction” value (BSJ-03-123; 0.03162 µM) was 0.0378, the “increase in dead-cell fraction” value (BSJ-03-123; 0.1 µM) was 0.0296 and the “increase in dead-cell fraction” value (BSJ-03-123; 0.3162 µM) was 0.0344. The “increase in dead-cell fraction” value (BSJ-03-123; 1 µM) was 0.0408, the “increase in dead-cell fraction” value (BSJ-03-123; 3.162 µM) was 0.0384 and the “increase in dead-cell fraction” value (BSJ-03-123; 10 µM) was 0.172. The “increase in dead-cell fraction” value (THZ1 [9]; 0.0001 µM) was -0.0033, the “increase in dead-cell fraction” value (THZ1 [9]; 0.0003162 µM) was -0.0036 and the “increase in dead-cell fraction” value (THZ1 [9]; 0.001 µM) was -0.0076. The “increase in dead-cell fraction” value (THZ1 [9]; 0.003162 µM) was -0.0032, the “increase in dead-cell fraction” value (THZ1 [9]; 0.01 µM) was 0.0133 and the “increase in dead-cell fraction” value (THZ1 [9]; 0.03162 µM) was 0.0431. For the same cell line, the “increase in dead-cell fraction” value (THZ1 [9]; 0.1 µM) was 0.249, the “increase in dead-cell fraction” value (THZ1 [9]; 0.3162 µM) was 0.303 and the “increase in dead-cell fraction” value (THZ1 [9]; 1 µM) was 0.593. The “increase in dead-cell fraction” value (LEE011/Ribociclib; 0.001 µM) was -0.0042, the “increase in dead-cell fraction” value (LEE011/Ribociclib; 0.003162 µM) was 0.0013 and the “increase in dead-cell fraction” value (LEE011/Ribociclib; 0.01 µM) was 0.0118. The “increase in dead-cell fraction” value (LEE011/Ribociclib; 0.03162 µM) was 0.0031, the “increase in dead-cell fraction” value (LEE011/Ribociclib; 0.1 µM) was 0.0263 and the “increase in dead-cell fraction” value (LEE011/Ribociclib; 0.3162 µM) was 0.0209. The “increase in dead-cell fraction” value (LEE011/Ribociclib; 1 µM) was 0.026, the “increase in dead-cell fraction” value (LEE011/Ribociclib; 3.162 µM) was 0.0204 and the “increase in dead-cell fraction” value (LEE011/Ribociclib; 10 µM) was 0.0467. For the same cell line, the “increase in dead-cell fraction” value (THZ531 [10]; 0.0001 µM) was -0.0063, the “increase in dead-cell fraction” value (THZ531 [10]; 0.0003162 µM) was 0.0002 and the “increase in dead-cell fraction” value (THZ531 [10]; 0.001 µM) was 0.0018. For the same cell line, the “increase in dead-cell fraction” value (THZ531 [10]; 0.003162 µM) was 0.0016, the “increase in dead-cell fraction” value (THZ531 [10]; 0.01 µM) was -0.0096 and the “increase in dead-cell fraction” value (THZ531 [10]; 0.03162 µM) was 0.0087. The “increase in dead-cell fraction” value (THZ531 [10]; 0.1 µM) was 0.0251, the “increase in dead-cell fraction” value (THZ531 [10]; 0.3162 µM) was 0.156 and the “increase in dead-cell fraction” value (THZ531 [10]; 1 µM) was 0.327. For the same cell line, the “increase in dead-cell fraction” value (YKL-5-124; 0.001 µM) was 0.0525, the “increase in dead-cell fraction” value (YKL-5-124; 0.003162 µM) was 0.0845 and the “increase in dead-cell fraction” value (YKL-5-124; 0.01 µM) was 0.102. For the same cell line, the “increase in dead-cell fraction” value (YKL-5-124; 0.03162 µM) was 0.109, the “increase in dead-cell fraction” value (YKL-5-124; 0.1 µM) was 0.115 and the “increase in dead-cell fraction” value (YKL-5-124; 0.3162 µM) was 0.184. The “increase in dead-cell fraction” value (YKL-5-124; 1 µM) was 0.197, the “increase in dead-cell fraction” value (YKL-5-124; 3.162 µM) was 0.147 and the “increase in dead-cell fraction” value (YKL-5-124; 10 µM) was 0.407. For the same cell line, the “increase in dead-cell fraction” value (Neratinib/HKI272; 0.0003162 µM) was 0.0178, the “increase in dead-cell fraction” value (Neratinib/HKI272; 0.001 µM) was 0.006 and the “increase in dead-cell fraction” value (Neratinib/HKI272; 0.003162 µM) was 0.0166. The “increase in dead-cell fraction” value (Neratinib/HKI272; 0.01 µM) was 0.0088, the “increase in dead-cell fraction” value (Neratinib/HKI272; 0.03162 µM) was 0.0102 and the “increase in dead-cell fraction” value (Neratinib/HKI272; 0.1 µM) was -0.0035. The “increase in dead-cell fraction” value (Neratinib/HKI272; 0.3162 µM) was 0.0102, the “increase in dead-cell fraction” value (Neratinib/HKI272; 1 µM) was 0.0009 and the “increase in dead-cell fraction” value (Neratinib/HKI272; 3.162 µM) was 0.0842.
